This passage reports T/C results from PubChem BioAssay AID248 (DTP/NCI, 2004).

The experiment deals with L1210 leukemia ip in BDF1 mice, survival T/C. In words: NCI In Vivo Anticancer Drug Screen. Data for tumor model L1210 Leukemia (intraperitoneal) in B6D2F1 (BDF1) mice. The settings on record: endpoint: mean survival time, higher = longer survival. Put shortly:
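Survival endpoint. Drug-treated group vs vehicle group, expressed as T divided by C. Tumor passaged by transplantation.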

[1] abbreviates: dose: 25.0 mg/kg/injection, schedule: Q01DX009 (ip), vehicle: Klucel (hydroxypropylcellulose) (HPC).
[2] abbreviates: dose: 50.0 mg/kg/injection, schedule: Q01DX009 (ip), vehicle: Klucel (hydroxypropylcellulose) (HPC).
Where [3] appears, read: dose: 100.0 mg/kg/injection, schedule: Q04DX002 (ip), vehicle: saline.
Setting [4] is: dose: 100.0 mg/kg/injection, schedule: Q01DX009 (ip), vehicle: Klucel (hydroxypropylcellulose) (HPC).
The mark [5] stands for this setting: dose: 100.0 mg/kg/injection, schedule: Q04DX003 (ip), vehicle: Klucel (hydroxypropylcellulose) (HPC).
The mark [6] stands for this setting: dose: 200.0 mg/kg/injection, schedule: Q01DX009 (ip), vehicle: Klucel (hydroxypropylcellulose) (HPC).
The mark [7] stands for this setting: dose: 200.0 mg/kg/injection, schedule: Q04DX003 (ip), vehicle: Klucel (hydroxypropylcellulose) (HPC).
Where [8] appears, read: dose: 400.0 mg/kg/injection, schedule: Q04DX003 (ip), vehicle: Klucel (hydroxypropylcellulose) (HPC).
Setting [9] is: dose: 100.0 mg/kg/injection, schedule: Q04DX002 (ip), vehicle: Klucel (hydroxypropylcellulose) (HPC).
[10] abbreviates: dose: 200.0 mg/kg/injection, schedule: Q04DX002 (ip), vehicle: Klucel (hydroxypropylcellulose) (HPC).
Setting [11] is: dose: 400.0 mg/kg/injection, schedule: Q04DX002 (ip), vehicle: Klucel (hydroxypropylcellulose) (HPC).

Where “and” joins values, the source holds several entries; their conditions need not be identical. Identical values can stand only once. Toxic doses and inconclusive results are not listed.

`Clc1ccc2c(c1)C(Br)c1cc(Cl)cc(Cl)c1-2` (stereo not given): the T/C was 102 % of control (dose: 25.0 mg/kg/injection, schedule: Q01DX009 (ip), vehicle: saline with Tween-80); 102 % of control (dose: 25.0 mg/kg/injection, schedule: Q04DX003 (ip), vehicle: saline); 94 % of control (dose: 50.0 mg/kg/injection, schedule: Q01DX009 (ip), vehicle: saline with Tween-80); 102 % of control (dose: 50.0 mg/kg/injection, schedule: Q04DX003 (ip), vehicle: saline); 94 % of control (dose: 100.0 mg/kg/injection, schedule: Q01DX001 (ip), vehicle: acetone); 93 % of control (dose: 100.0 mg/kg/injection, schedule: Q01DX009 (ip), vehicle: saline with Tween-80). Also, the T/C (dose: 100.0 mg/kg/injection, schedule: Q04DX003 (ip), vehicle: saline) is 91 % of control.

For the molecule `Cc1cccc(C)c1NC(=S)NC1CC(C)CC(C)(C)C1` (stereo not given), the T/C is, setting by setting: (dose: 12.5 mg/kg/injection, schedule: Q01DX009 (ip), vehicle: Klucel (hydroxypropylcellulose) (HPC)) 100 % of control; under setting [1], 109 % of control; under setting [2], 96 % of control.

As to `O=C(NCc1ccncc1)Nc1ccccc1Cl`, the T/C is, setting by setting: under setting [3], 97 % of control; (dose: 200.0 mg/kg/injection, schedule: Q04DX002 (ip), vehicle: saline) 87 % of control.

With `Nc1nc(=S)c2[nH]c(N=Nc3ccc(S(=O)(=O)Nc4ccccn4)cc3)nc2[nH]1`, the T/C (dose: 6.25 mg/kg/injection, schedule: Q01DX009 (ip), vehicle: Klucel (hydroxypropylcellulose) (HPC)) was 170 % of control; the T/C under setting [1] was 112 % of control; the T/C under setting [2] was 100 % of control and 117 % of control and 124 % of control; the T/C (dose: 50.0 mg/kg/injection, schedule: Q04DX003 (ip), vehicle: Klucel (hydroxypropylcellulose) (HPC)) was 106 % of control; the T/C (dose: 100.0 mg/kg/injection, schedule: Q01DX001 (ip), vehicle: saline) was 98 % of control; the T/C under setting [4] was 101 % of control. In addition, the T/C under setting [5] was 117 % of control; the T/C (dose: 200.0 mg/kg/injection, schedule: Q01DX001 (ip), vehicle: saline) is 104 % of control; the T/C under setting [6] was 100 % of control; the T/C (dose: 400.0 mg/kg/injection, schedule: Q01DX001 (ip), vehicle: saline) is 104 % of control.

Take `Oc1c(-c2ccccc2)n[nH]c1-c1ccccc1`: the T/C runs as follows: under setting [2], 98 % of control; under setting [4], 98 % of control; under setting [6], 94 % of control.

Consider `CC(C#N)CC12CCCCC1CC/C(=C\c1ccccc1)C2` (stereo not given), for which the T/C runs as follows: under setting [5], 92 % of control; under setting [7], 94 % of control; under setting [8], 94 % of control.

On to `O=c1[nH]cc(COCC(F)(F)F)c(=O)[nH]1`, for which the T/C by setting is: (dose: 50.0 mg/kg/injection, schedule: Q01DX005 (ip), vehicle: other) 106 % of control; (dose: 100.0 mg/kg/injection, schedule: Q01DX005 (ip), vehicle: other) 95 % of control; (dose: 200.0 mg/kg/injection, schedule: Q01DX005 (ip), vehicle: other) 106 % of control.

With `CC(C)C(N)C(=O)NCCCCC(N)C(=O)O` (stereo not given), the T/C reads like this: (dose: 25.0 mg/kg/injection, schedule: Q04DX002 (ip), vehicle: saline) 103 % of control; (dose: 50.0 mg/kg/injection, schedule: Q04DX002 (ip), vehicle: saline) 103 % of control; under setting [3], 100 % of control.

Turning to `O=C(N/N=C/c1ccc2c(c1)CCC2)c1ccccc1N=Cc1ccc2c(c1)CCC2`, the T/C was 86 % of control under setting [5], 96 % of control under setting [7] and 92 % of control under setting [8].

As for `Cc1ccc(N=Nc2ccccn2)cc1`, the T/C is, setting by setting: under setting [9], 104 % of control; under setting [10], 93 % of control; under setting [11], 93 % of control.

As for `CC1(c2cccc(Cl)c2)NC(=O)NC1=O` (stereo not given), the T/C runs as follows: under setting [9], 112 % of control; under setting [10], 105 % of control; under setting [11], 108 % of control.

Take `CCOCCO`: the T/C is 97 % of control (dose: 5.0 mg/kg/injection, schedule: Q01DX009 (ip), vehicle: saline); 90 % of control (dose: 10.0 mg/kg/injection, schedule: Q01DX009 (ip), vehicle: saline); 98 % of control (dose: 20.0 mg/kg/injection, schedule: Q01DX009 (ip), vehicle: saline).

As for `COC(=O)[C@@]12OC[C@]34[C@H]([C@@H](O)[C@@H]1O)[C@@]1(C)CC(=O)C(O)=C(C)[C@@H]1C[C@H]3OC(=O)[C@H](OC(=O)/C=C(\C)C(C)C)[C@@H]24`, the T/C is 111 % of control (dose: 0.03 mg/kg/injection, schedule: Q01DX009 (ip), vehicle: other); 111 % of control (dose: 0.03 mg/kg/injection, schedule: Q01DX009 (ip), vehicle: saline with Tween-80); 107 % of control (dose: 0.03 mg/kg/injection, schedule: Q03HX024 (ip), vehicle: other); 108 % of control (dose: 0.03 mg/kg/injection, schedule: Q03HX024 (ip), vehicle: saline with Tween-80); 111 % of control and 116 % of control (dose: 0.06 mg/kg/injection, schedule: Q01DX009 (ip), vehicle: other); 110 % of control and 120 % of control (dose: 0.06 mg/kg/injection, schedule: Q01DX009 (ip), vehicle: saline with Tween-80). Moreover, the T/C was 107 % of control (dose: 0.06 mg/kg/injection, schedule: Q03HX024 (ip), vehicle: other); 114 % of control (dose: 0.06 mg/kg/injection, schedule: Q03HX024 (ip), vehicle: saline with Tween-80); 118 % of control and 123 % of control (dose: 0.12 mg/kg/injection, schedule: Q01DX009 (ip), vehicle: other); 117 % of control (dose: 0.12 mg/kg/injection, schedule: Q01DX009 (ip), vehicle: saline with Tween-80); 121 % of control (dose: 0.12 mg/kg/injection, schedule: Q03HX024 (ip), vehicle: other); 116 % of control (dose: 0.12 mg/kg/injection, schedule: Q03HX024 (ip), vehicle: saline with Tween-80). Also, the T/C (dose: 0.25 mg/kg/injection, schedule: Q01DX009 (ip), vehicle: saline with Tween-80) is 121 % of control; the T/C (dose: 0.25 mg/kg/injection, schedule: Q03HX024 (ip), vehicle: other) is 121 % of control; the T/C (dose: 0.5 mg/kg/injection, schedule: Q01DX009 (ip), vehicle: other) is 117 % of control; the T/C (dose: 0.5 mg/kg/injection, schedule: Q01DX009 (ip), vehicle: saline with Tween-80) is 123 % of control; the T/C (dose: 0.6 mg/kg/injection, schedule: Q01DX009 (ip), vehicle: saline + alcohol) is 96 % of control; the T/C (dose: 0.8 mg/kg/injection, schedule: Q01DX009 (ip), vehicle: saline + alcohol) is 112 % of control. Further, the T/C by setting is: (dose: 1.0 mg/kg/injection, schedule: Q01DX009 (ip), vehicle: other) 122 % of control; (dose: 1.3 mg/kg/injection, schedule: Q01DX009 (ip), vehicle: saline + alcohol) 114 % of control; (dose: 2.0 mg/kg/injection, schedule: Q01DX009 (ip), vehicle: saline + alcohol) 123 % of control; (dose: 8.0 micrograms/kg/injection, schedule: Q01DX009 (ip), vehicle: saline + alcohol) 91 % of control; (dose: 16.0 micrograms/kg/injection, schedule: Q01DX009 (ip), vehicle: saline + alcohol) 100 % of control; (dose: 31.0 micrograms/kg/injection, schedule: Q01DX009 (ip), vehicle: saline + alcohol) 109 % of control. In addition, the T/C (dose: 62.0 micrograms/kg/injection, schedule: Q01DX009 (ip), vehicle: saline + alcohol) is 114 % of control; the T/C (dose: 250.0 micrograms/kg/injection, schedule: Q01DX009 (ip), vehicle: saline + alcohol) was 115 % of control; the T/C (dose: 500.0 micrograms/kg/injection, schedule: Q01DX009 (ip), vehicle: saline + alcohol) is 114 % of control; the T/C (dose: 1000.0 micrograms/kg/injection, schedule: Q01DX009 (ip), vehicle: saline + alcohol) was 120 % of control; the T/C (dose: 2000.0 micrograms/kg/injection, schedule: Q01DX009 (ip), vehicle: saline + alcohol) is 117 % of control.
